“And” between values parts separate entries of the source, which are not always exact repeats. Identical values can stand only once.
How the values were obtained:
[1] = target: T1, VCB and BRD9-BD (ternary complex) (Homo sapiens, UniProt P40337+Q9H8M2); assay: ITC, VCB titrated into BRD9-BD:PROTAC binary complex (ternary); format: binding; conditions: 25 °C; for N (stoichiometry), VCB into BRD9-BD:PROTAC complex / ΔG, VCB into BRD9-BD:PROTAC complex / ΔH, VCB into BRD9-BD:PROTAC complex / –TΔS, VCB into BRD9-BD:PROTAC complex: ITC; for cooperativity α (ITC): binary versus ternary VCB binding
T1 construct: the bromodomain (residues 134–239) for BRD9 (Q9H8M2); His6 (cleaved yes); made in house; host or cells: Escherichia coli BL21(DE3)
T1 sequence (P40337 54-213 limits assumed): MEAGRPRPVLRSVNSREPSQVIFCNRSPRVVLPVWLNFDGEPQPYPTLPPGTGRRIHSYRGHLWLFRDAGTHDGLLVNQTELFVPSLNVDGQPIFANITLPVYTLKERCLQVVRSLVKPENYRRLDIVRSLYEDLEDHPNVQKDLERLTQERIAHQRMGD
T1 sequence (Q15369 17-112 partner limits assumed): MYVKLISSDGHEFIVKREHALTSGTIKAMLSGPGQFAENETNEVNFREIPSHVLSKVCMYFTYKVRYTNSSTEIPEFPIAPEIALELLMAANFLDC
T1 sequence (Q15370 1-104 partner limits assumed): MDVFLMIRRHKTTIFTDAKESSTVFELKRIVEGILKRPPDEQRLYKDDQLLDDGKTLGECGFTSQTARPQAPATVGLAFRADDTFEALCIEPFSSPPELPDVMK
T1 sequence (Q9H8M2 134-239 limits assumed): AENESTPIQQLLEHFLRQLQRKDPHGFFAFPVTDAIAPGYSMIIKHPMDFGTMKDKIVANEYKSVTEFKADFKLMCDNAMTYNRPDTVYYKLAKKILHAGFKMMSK

[2] = Parallel Artificial Membrane Permeability Assay (PAMPA); format: in vitro ADME; conditions: for recovery at 5 h, 10 µM / PAMPA pH 7.4 HIGH/MED/LOW: pH 7.4; for PAMPA pH 7.4 HIGH/MED/LOW: permeability class
Procedure: Test compound (10 µM) was incubated in pre-warmed plasma at 37 ᵒC (that is buffered to pH 7.4 in ratio of 70:30 plasma to buffer). Immediately, at time zero, then at 30, 60, 120, and 180 min, a 50 µL aliquot of the incubation mixture was removed and mixed with 200 µL acetonitrile containing Donepezil as the internal standard (50 ng/ml) to stop the reaction. The samples were centrifuged to sediment the precipitated protein and the plates then sealed prior to UPLC-MS/MS analysis using a Xevo TQ-S Micro (Waters Corporation, USA).
XLfit (IDBS, UK) was used to calculate the exponential decay and consequently the rate constant (k) from the ratio of peak area of test compound to internal standard at each time point. The half-life was calculated for each test compound from the rate by using the […]
Parallel Artificial Membrane Permeability Assay (PAMPA)
PAMPA was performed using a 96-well pre-coated BD Gentest™ PAMPA plate (BD Biosciences, U.K.). Each well was divided into two chambers; donor and acceptor, separated by a lipid-oil-lipid tri-layer constructed in a porous filter. The effective permeability, Pe, of the compound was measured at pH 7.4. Stock solutions (5 mM) of the compound were prepared in DMSO. The compound was then further diluted to 10 µM in phosphate buffered […]
saline at pH 7.4. […] The compound […]
dissolved in phosphate buffered saline was then added to the donor side of the membrane and phosphate buffered saline without compound was added to the acceptor side. The PAMPA plate was left at room temperature for 5 h. After which time, an aliquot (100 µL) was then […]
removed from both acceptor and donor compartments and mixed with acetonitrile (80 µL) containing an internal standard. The samples were centrifuged (10 min, 5 °C, 3270 g) to sediment precipitated protein and sealed prior to UPLC-MS/MS analysis using a Xevo TQ-S Micro (Waters Corp, USA). Pe was calculated as shown in the below equation: […]
CA(t) = peak area of compound present in acceptor well at time t = 18000 s Cequi = [CD(t) x VD + CA(t) x VA] / (VD + VA)
VA = acceptor well volume
CD(t) = peak area of compound present in donor well at time t = 18000 s Recovery of compound from donor and acceptor wells was calculated and data was only accepted when recovery exceeded 70%.
Using a fast gradient, reverse-phase HPLC method to determine the chromatographic hydrophobicity index (CHI) was determined as described by Camurri and Zaramella (ref. 3) and Valko et al. (ref. 4). Briefly, by plotting the retention time of a set of reference

| SMILES | N (stoichiometry), VCB into BRD9-BD:PROTAC complex [1] | ΔG, VCB into BRD9-BD:PROTAC complex [1] | ΔH, VCB into BRD9-BD:PROTAC complex [1] | –TΔS, VCB into BRD9-BD:PROTAC complex [1] | cooperativity α (ITC) [1] | recovery at 5 h, 10 µM ([2]; PAMPA) [%] | PAMPA pH 7.4 Pe ([2]; pH 7.4, 5 h) [nm/s] | PAMPA pH 7.4 HIGH/MED/LOW [2] | Papp at 5 h, 10 µM ([2]; PAMPA, pH 7.4, 5 h, read-out: PAMPA pH 7.4 Pe) [×10⁻⁶ cm/s] | cooperativity α (ITC) ([1]; listed as VZ185) | PAMPA pH 7.4 HIGH/MED/LOW ([2]; listed as VZ185) |
| --- | --- | --- | --- | --- | --- | --- | --- | --- | --- | --- | --- |
| COc1cc(-c2cn(C)c(=O)c3cnccc23)cc(OC)c1CN1CCN(CCOCCOCC(=O)N[C@H](C(=O)N2C[C@H](O)C[C@H]2C(=O)NCc2ccc(-c3scnc3C)cc2)C(C)(C)C)CC1 [Compound 5, (2S,4R)-1-((S)-2-(2-(2-(2-(4-(2,6-Dimethoxy-4-(2-methyl-1-oxo-1,2-dihydro-2,7-naphthyridin-4-yl)benzyl)piperazin-1-yl)ethoxy)ethoxy)acetamido)-3,3-dimethylbutanoyl)-4-hydroxy-N-(4-(4-methylthiazol-5-yl)benzyl)pyrrolidine-2-carboxamide] | 0.75 ± 0.05 | –9.7 ± 0.1 kcal/mol | –6.4 ± 0.1 kcal/mol | –3.3 ± 0.1 kcal/mol | – | – | – | – | – | – | – |
| COc1cc(-c2cn(C)c(=O)c3cnccc23)cc(OC)c1CN1CCN(CCOCCOCCOc2cc(-c3scnc3C)ccc2CNC(=O)[C@@H]2C[C@@H](O)CN2C(=O)[C@@H](NC(=O)C2(F)CC2)C(C)(C)C)CC1 [Compound 26, (2S,4R)-N-(2-(2-(2-(2-(4-(2,6-Dimethoxy-4-(2-methyl-1-oxo-1,2-dihydro-2,7-naphthyridin-4-yl)benzyl)piperazin-1-yl)ethoxy)ethoxy)ethoxy)-4-(4-methylthiazol-5-yl)benzyl)-1-((S)-2-(1-fluorocyclopropane-1-carboxamido)-3,3-dimethylbutanoyl)-4-hydroxypyrrolidine-2-carboxamide] | 0.99 | –9.7 ± 0.2 kcal/mol | –6.4 ± 0.2 kcal/mol | –3.3 ± 0.2 kcal/mol | 1 and 1.05 | 94 | 0.01 | LOW and low cell permeability | – | – | – |
| COc1cc(-c2cn(C)c(=O)c3cnccc23)cc(OC)c1CN1CCN(CCCCCOc2cc(-c3scnc3C)ccc2CNC(=O)[C@@H]2C[C@H](O)CN2C(=O)[C@@H](NC(=O)C2(F)CC2)C(C)(C)C)CC1 [cisVZ185] | – | – | – | – | – | 87 | – | LOW | 0.036 | – | – |
| COc1cc(-c2cn(C)c(=O)c3cnccc23)cc(OC)c1CN1CCN(CCCCCOc2cc(-c3scnc3C)ccc2CNC(=O)[C@@H]2C[C@@H](O)CN2C(=O)[C@@H](NC(=O)C2(F)CC2)C(C)(C)C)CC1 [Compound 51, (2S,4R)-N-(2-((5-(4-(2,6-Dimethoxy-4-(2-methyl-1-oxo-1,2-dihydro-2,7-naphthyridin-4-yl)benzyl)piperazin-1-yl)pentyl)oxy)-4-(4-methylthiazol-5-yl)benzyl)-1-((S)-2-(1-fluorocyclopropane-1-carboxamido)-3,3-dimethylbutanoyl)-4-hydroxypyrrolidine-2-carboxamide] | 0.73 | –10.33 ± 0.08 kcal/mol | –5.1 ± 0.1 kcal/mol | –5.3 ± 0.1 kcal/mol | – | – | 0.01 | – | – | 0.97 and 0.96 | LOW and low cell permeability |
